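Five concentrations, 48 hours, 96-well plates. TGI: concentration producing complete growth inhibition.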
Tests used:
Assay in all cases: NCI tumour cell line growth inhibition, 48 h
SF-268 CNS = system: SF-268 CNS
OVCAR-4 ovarian = system: OVCAR-4 ovarian
HCC-2998 colon = system: HCC-2998 colon
HOP-92 NSCLC = system: HOP-92 NSCLC
RPMI-8226 leukemia = system: RPMI-8226 leukemia
MALME-3M melanoma = system: MALME-3M melanoma
PC-3 prostate = system: PC-3 prostate
SW-620 colon = system: SW-620 colon
SK-MEL-5 melanoma = system: SK-MEL-5 melanoma
SNB-19 CNS = system: SNB-19 CNS
UACC-257 melanoma = system: UACC-257 melanoma
SN12C renal = system: SN12C renal
UO-31 renal = system: UO-31 renal
U251 CNS = system: U251 CNS
LOX IMVI melanoma = system: LOX IMVI melanoma
K-562 leukemia = system: K-562 leukemia

| Structure (SMILES) | TGI (SF-268 CNS) [µM] | TGI (OVCAR-4 ovarian) [µM] | TGI (HCC-2998 colon) [µM] | TGI (HOP-92 NSCLC) [µM] | TGI (RPMI-8226 leukemia) [µM] | TGI (MALME-3M melanoma) [µM] | TGI (PC-3 prostate) [µM] | TGI (SW-620 colon) [µM] | TGI (SK-MEL-5 melanoma) [µM] | TGI (SNB-19 CNS) [µM] | TGI (UACC-257 melanoma) [µM] | TGI (SN12C renal) [µM] | TGI (UO-31 renal) [µM] | TGI (U251 CNS) [µM] | TGI (LOX IMVI melanoma) [µM] | TGI (K-562 leukemia) [µM] |
| --- | --- | --- | --- | --- | --- | --- | --- | --- | --- | --- | --- | --- | --- | --- | --- | --- |
| COC(=O)/C(C#N)=C(/NCc1ccccc1)Nc1ccccc1 | > 100 | > 100 | > 100 | > 100 | > 100 | > 100 | > 100 | > 100 | > 100 | > 100 | > 100 | > 100 | > 100 | > 100 | > 100 | > 100 |
| COc1cc(OC)c2nc(C)c3c(c2c1)OCC3 | > 100 | > 100 | > 100 | > 100 | > 100 | > 100 | > 100 | > 100 | > 100 | > 100 | > 100 | > 100 | > 100 | > 100 | > 100 | > 100 |
| COc1cc(/C=C2\CC(C)C/C(=C\c3ccc(O)c(OC)c3)C2=O)ccc1O (centres undefined) | 20.7 | 8.96 | 12.5 | 10.4 | > 100 | 8.75 | 20.5 | 5.41 | 4.52 | 22.3 | 9.08 | 8.35 | 5.41 | 5.59 | 5.79 | > 73.5 |
| CC(C)(C)OC(=O)NC(Cc1ccc(OCc2ccccc2)cn1)C(N)=O (centres undefined) | > 100 | > 100 | > 100 | > 100 | > 100 | > 100 | > 100 | > 100 | 94.2 | > 100 | > 100 | > 100 | > 100 | > 100 | > 100 | > 100 |
